This is an account of results in US8748088B2, “Methods of monitoring treatment effectiveness in HIV-infected patients receiveing intensified HAART regimens by measuring episomal 2-LTR circles” (University of Massachusetts, priority 2009, dated 2014).

The subject of one test is total HIV-1 DNA. The experiment in a line: Real-time PCR quantification of total HIV-1 DNA in PBMCs of intensified patients. The conditions noted are these: throughout the 12 weeks of intensification, p=0.342 signed rank test. Type of test: in vivo. An excerpt:
(§1) A total of 69 patients with undetectable plasma viremia (viral load <50 HIV-1 RNA copies/ml) for at least one year were included in this study. All patients were on a suppressive HAART regimen that included 2 nucleoside reverse transcriptase inhibitors, and either a protease inhibitor or a non-nucleoside reverse transcriptase inhibitor. A total of 45 patients were randomized to intensify their HAART with the integrase inhibitor raltegravir for 12 weeks, and 24 patients were included as a control arm. One patient in the control group was lost to follow-up before study initiation. […]
Total viral DNA forms (comprising unintegrated and integrated viral cDNA) were assayed using internal LTR primers (FIG. 2). […] Real-time PCR-based quantification of total HIV-1 DNA was performed as follows. […] A single-step real-time PCR was used to quantify total HIV-1 DNA in a 50 ul PCR reaction mix containing 25 ul of TaqMan® Universal PCR Master Mix (Applied Biosystems), 20 ul of chromosomal HIV-1 DNA and primers and probe that anneal in the 5′ and 3′ end of the R and U5 region of the LTR respectively, as has previously been described (Brussel and Sonigo, J Virol 77, 10119-10124 (2003)) using a forward primer; 5′ GG CTA ACT AGG GAA CCC ACT G 3′ (SEQ ID NO:4) and a reverse primer; 5′ GCTAGAGATTTTCCACACTGACTAA 3′ (SEQ ID NO:5). […] Amplification and calculation of copy number was determined as for 2-LTR DNA. […]

Another test concerns integrated HIV-1 DNA. The experiment in a line: Two-step Alu-LTR real-time PCR quantification of integrated HIV-1 DNA in PBMCs of intensified patients. It is filed as in vivo. The conditions noted are these: for levels of integrated HIV-1 DNA: throughout the 12 weeks of intensification, p=0.768 signed rank test. An excerpt:
A total of 69 patients with undetectable plasma viremia (viral load <50 HIV-1 RNA copies/ml) for at least one year were included in this study. All patients were on a suppressive HAART regimen that included 2 nucleoside reverse transcriptase inhibitors, and either a protease inhibitor or a non-nucleoside reverse transcriptase inhibitor. A total of 45 patients were randomized to intensify their HAART with the integrase inhibitor raltegravir for 12 weeks, and 24 patients were included as a control arm. One patient in the control group was lost to follow-up before study initiation. A second patient also in this group, who had two consecutive viral load measurements at weeks 12 and 24 (90 and 63 HIV-1 copies/mL respectively), was excluded for further analysis.
HIV-1 DNA purification was isolated as previously described (Hunt et al., J Infect Dis 187, 1534-1543 (2003)) with some modifications. […]
Real-time PCR-based quantification of integrated HIV-1 DNA was performed as follows. […] A two-step real-time PCR was used to quantitate integrated HIV-1 DNA using Alu-LTR primers as has previously been described (Brussel and Sonigo, J Virol 77, 10119-10124 (2003)). […] The fluorescence taqman probe was 5′[…] […]
Amplification and calculation of copy number was determined as for 2-LTR DNA. […] Integrated proviral DNA was measured using LTR-Alu primers. […]
(§2) Statistical analysis for the above-described experiments was performed as follows. […] In each group longitudinal changes of total and integrated HIV-1 and immune activation parameters were assessed through the signed rank test (paired test) comparing weeks 0 and 12, or weeks 0 and 24 respectively. Differences in proportions between groups were analyzed through the Pearson's chi square, considering the continuity correction or the Fisher's exact test, as appropriate. Within the intensified arm, differences in 2-LTR circles at weeks 2 and 4 compared to baseline were analyzed using Peto-Prentice-Wilcoxon test. […]
For orientation: Real-time PCR tracks product formation cycle by cycle.

For the next test, the system named is HIV-1 2-LTR circles. The experiment in a line: Real-time PCR quantification of episomal HIV-1 DNA (2-LTR circles) in PBMCs of HAART-suppressed patients intensified with raltegravir. Type of test: in vivo.
From the text: as §1
The samples included in this study were drawn from HIV-1 infected patients who were longitudinally monitored for up to 12 weeks. […]
In the formation of 2-LTR circles, U3 and U5 sequences within the 5′ and 3′ LTRs ligate to form a unique U3-U5 circle junction that is not represented in other forms of viral cDNA (FIG. 1A). Therefore, 2-LTR circles were specifically measured by real-time PCR with primers flanking the 2-LTR circle junction. […]
Real-time PCR-based quantification of HIV-1 2-LTR circles was performed as follows. […] A single-step, real-time PCR was used to quantify 2-LTR circles in a 50 ul PCR reaction mix containing 25 ul of TaqMan® Universal PCR Master Mix (Applied Biosystems), 20 ul of extrachromosomal HIV-1 DNA and primers and probe that span the 2-LTR circle junction. […]

For test [1], the system named is memory CD4+ and activated CD8+ T cells. The experiment in a line: Flow cytometry analysis of lymphocyte subsets and immune activation in fresh blood. It is filed as in vivo, HIV-1 infected patients. The protocol: Analysis of lymphocyte subsets and immune activation was performed as follows. A total of 52 patients, 34 in the intensification group and 18 patients in the control group, had fresh blood samples available for flow cytometry analysis through the study period. Different combinations of antibodies were used to characterize different lymphocyte subsets: combination 1 was designed to evaluate naïve/memory subsets and contained CD45RA-FITC, CD31-PE, CD38-PerCP, CD3-APC-Cy7, CD4-APC and CD8-PE-Cy7; combination 2 was designed to evaluate the activation of CD8 T cells and contained HLA-DR-FITC, PD-1-PE, CD38-PerCP, CD45RO-APC, CD3-APC-Cy7 and CD8-PE-Cy7. Controls with combinations of CD3-APC-Cy7, CD4-APC and CD8-PE-Cy7 antibodies were performed for all samples. All antibodies were obtained from Becton Dickinson. Briefly, 20 ul of fresh whole blood was incubated with antibodies for 15 min at room temperature with the different antibody combinations in V-bottom 96-well plates. Red cells were lysed using the BD FACs lysing solution (Becton Dickinson), washed once with PBS and resuspended in PBS containing 1% formaldehyde. Acquisition of flow cytometry data was performed on an LSRII flow cytometer (Becton Dickinson) coupled with a HTS loader. At least 30,000 lymphocytes were collected for each sample. Analyses were performed with FlowJo software (Tree Star Inc.).
as §2
Background: In flow cytometry, cells or beads pass a laser one at a time.

The mark [2] stands for this setting: raltegravir-intensified group as a whole, throughout the study period (weeks 0-24).

On to `Cc1nnc(C(=O)NC(C)(C)c2nc(C(=O)NCc3ccc(F)cc3)c(O)c(=O)n2C)o1` [raltegravir], for which the “levels of total HIV-1 DNA” value in the test on total HIV-1 DNA was “remained stable”; with total HIV-1 DNA (listed as Raltegravir), “did not cause significant fluctuations”. In the test on integrated HIV-1 DNA (intensified patients 39/45, any time point after initiation of the study), the “patients from whom integrated HIV-1 DNA was amplified” value is recorded as 87%. Further, the “levels of integrated HIV-1 DNA” value in the test with integrated HIV-1 DNA is listed as “remained stable”; in the test with integrated HIV-1 DNA (listed as Raltegravir), “did not cause significant fluctuations”. The “patients with detectable 2-LTR circles (active replication revealed)” value in the test on HIV-1 2-LTR circles (HAART intensified with raltegravir for 12 weeks, n=45, any time point during the study, 13/45, control 0/22, p=0.003) worked out at 29%. For the same molecule, in the test on HIV-1 2-LTR circles (intensification group, weeks 2 and 4 vs baseline (p=0.036 and p=0.023), subsequent decrease afterwards), the “change in 2-LTR circles compared to baseline” value is “significant and transient increase in 2-LTR circles”. Moreover, the immune activation result in test [1] (patients in which raltegravir impacted active replication (2-LTR+ subgroup, n=13)) is “normalization of immune activation”. Further, the “activated CD8+ T cells” value in test [1] (setting [2]) is recorded as “no major changes”. Besides, in test [1] (setting [2]), the “memory CD4+ T cells (CD4+CD45RA-)” value is “no major changes”.
